Reference: patent US20210045385A1, “PYRIDAZINONE-SUBSTITUTED KETOXIMES AS HERBICIDES” (FMC Corporation, priority 2018, published 2021)

Tests used:
Format in all cases: in vivo
[1] = tested on: Italian ryegrass (Lolium multiflorum); test: Test A preemergence, visual plant response rating; settings: for Ryegrass, Italian plant response rating: 125 g ai/ha, preemergence, 0 to 100 scale, 0 no effect, 100 complete control; for Ryegrass, Italian plant response rating (0 to 100 scale): 500 g ai/ha Preemergence, approx. 10 days
Text: (§1) Seeds of plant species selected from barnyardgrass (Echinochloa crus-galli), kochia (Kochia scoparia), ragweed (common ragweed, Ambrosia elatior), Italian ryegrass (Lolium multiflorum), foxtail, giant (giant foxtail, Setaria faberii), foxtail, green (green foxtail, Setaria viridis), and pigweed (Amaranthus retroflexus) were planted into a blend of loam soil and sand and treated preemergence with a directed soil spray using test chemicals formulated in a non-phytotoxic solvent mixture which included a surfactant.
(§2) At the same time, plants selected from these weed species and also wheat (Triticum aestivum), corn (Zea mays), blackgrass (Alopecurus myosuroides), and galium (catchweed bedstraw, Galium aparine) were planted in pots containing the same blend of loam soil and sand and treated with postemergence applications of test chemicals formulated in the same manner. Plants ranged in height from 2 to 10 cm and were in the one- to two-leaf stage for the postemergence treatment. Treated plants and untreated controls were maintained in a greenhouse for approximately 10 days, after which time all treated plants were compared to untreated controls and visually evaluated for injury. Plant response ratings, summarized in Table A, are based on a 0 to 100 scale where 0 is no effect and 100 is complete control. A dash (-) response means no test result.

[2] = tested on: barnyardgrass (Echinochloa crus-galli); test: Test A preemergence, visual plant response rating; settings: for Barnyardgrass plant response rating: 125 g ai/ha, preemergence, 0 to 100 scale, 0 no effect, 100 complete control; for Barnyardgrass plant response rating (0 to 100 scale): 500 g ai/ha Preemergence, approx. 10 days
Text: as §1, §2

[3] = tested on: foxtail, giant (giant foxtail, Setaria faberii); test: Test A preemergence, visual plant response rating; settings: for Foxtail, Giant plant response rating: 125 g ai/ha, preemergence, 0 to 100 scale, 0 no effect, 100 complete control; for Foxtail, Giant plant response rating (0 to 100 scale): 500 g ai/ha Preemergence, approx. 10 days
Text: as §1, §2

kochia (Kochia scoparia) [4] = test: Test A preemergence, visual plant response rating; settings: for Kochia plant response rating: 125 g ai/ha, preemergence, 0 to 100 scale, 0 no effect, 100 complete control; for Kochia plant response rating (0 to 100 scale): 500 g ai/ha Preemergence, approx. 10 days
Text: as §1, §2

[5] = tested on: pigweed (Amaranthus retroflexus); test: Test A preemergence, visual plant response rating; settings: for Pigweed plant response rating: 125 g ai/ha, preemergence, 0 to 100 scale, 0 no effect, 100 complete control; for Pigweed plant response rating (0 to 100 scale): 500 g ai/ha Preemergence, approx. 10 days
Text: as §1, §2

[6] = tested on: Italian ryegrass (Lolium multiflorum); test: Test A postemergence, visual plant response rating; settings: for Ryegrass, Italian plant response rating (0 to 100 scale): 500 g ai/ha, postemergence, 0 is no effect, 100 is complete control; for Ryegrass, Italian plant response rating: Postemergence, 125 g ai/ha, 0 to 100 scale (0 no effect, 100 complete control)
Text: as §1, §2

[7] = tested on: barnyardgrass (Echinochloa crus-galli); test: Test A postemergence, visual plant response rating; settings: for Barnyardgrass plant response rating (0 to 100 scale): 500 g ai/ha, postemergence, 0 is no effect, 100 is complete control; for Barnyardgrass plant response rating: Postemergence, 125 g ai/ha, 0 to 100 scale (0 no effect, 100 complete control)
Text: as §1, §2

[8] = tested on: blackgrass (Alopecurus myosuroides); test: Test A postemergence, visual plant response rating; settings: for Blackgrass plant response rating (0 to 100 scale): 500 g ai/ha, postemergence, 0 is no effect, 100 is complete control; for Blackgrass plant response rating: Postemergence, 125 g ai/ha, 0 to 100 scale (0 no effect, 100 complete control)
Text: as §1, §2

corn (Zea mays) = test: Test A postemergence, visual plant response rating; settings: for Corn plant response rating (0 to 100 scale): 500 g ai/ha, postemergence, 0 is no effect, 100 is complete control; for Corn plant response rating: Postemergence, 125 g ai/ha, 0 to 100 scale (0 no effect, 100 complete control)
Text: as §1, §2

[9] = tested on: foxtail, giant (giant foxtail, Setaria faberii); test: Test A postemergence, visual plant response rating; settings: for Foxtail, Giant plant response rating (0 to 100 scale): 500 g ai/ha, postemergence, 0 is no effect, 100 is complete control; for Foxtail, Giant plant response rating: Postemergence, 125 g ai/ha, 0 to 100 scale (0 no effect, 100 complete control)
Text: as §1, §2

[10] = tested on: galium (catchweed bedstraw, Galium aparine); test: Test A postemergence, visual plant response rating; settings: for Galium plant response rating (0 to 100 scale): 500 g ai/ha, postemergence, 0 is no effect, 100 is complete control; for Galium plant response rating: Postemergence, 125 g ai/ha, 0 to 100 scale (0 no effect, 100 complete control)
Text: as §1, §2

kochia (Kochia scoparia) [11] = test: Test A postemergence, visual plant response rating; settings: for Kochia plant response rating (0 to 100 scale): 500 g ai/ha, postemergence, 0 is no effect, 100 is complete control; for Kochia plant response rating: Postemergence, 125 g ai/ha, 0 to 100 scale (0 no effect, 100 complete control)
Text: as §1, §2

[12] = tested on: pigweed (Amaranthus retroflexus); test: Test A postemergence, visual plant response rating; settings: for Pigweed plant response rating (0 to 100 scale): 500 g ai/ha, postemergence, 0 is no effect, 100 is complete control; for Pigweed plant response rating: Postemergence, 125 g ai/ha, 0 to 100 scale (0 no effect, 100 complete control)
Text: as §1, §2

[13] = tested on: ragweed (common ragweed, Ambrosia elatior); test: Test A postemergence, visual plant response rating; settings: for Ragweed plant response rating (0 to 100 scale): 500 g ai/ha, postemergence, 0 is no effect, 100 is complete control; for Ragweed plant response rating: Postemergence, 125 g ai/ha, 0 to 100 scale (0 no effect, 100 complete control)
Text: as §1, §2

[14] = tested on: wheat (Triticum aestivum); test: Test A postemergence, visual plant response rating; settings: for Wheat plant response rating (0 to 100 scale): 500 g ai/ha, postemergence, 0 is no effect, 100 is complete control; for Wheat plant response rating: Postemergence, 125 g ai/ha, 0 to 100 scale (0 no effect, 100 complete control)
Text: as §1, §2

[15] = tested on: barnyardgrass (Echinochloa crus-galli); test: Test B flooded paddy test, visual plant response rating; settings: 250 g ai/ha, Flood, applied to paddy water, 2-leaf stage, evaluated after 13 to 15 days
Procedure: (§3) Plant species in the flooded paddy test selected from rice (Oryza sativa), sedge, umbrella (small-flower umbrella sedge, Cyperus difformis), ducksalad (Heteranhera limosa), and barnyardgrass (Echinochloa crus-galli) were grown to the 2-leaf stage for testing. At time of treatment, test pots were flooded to 3 cm above the soil surface treated by application of test compounds directly to the paddy water, and then maintained at that water depth for the duration of the test. Treated plants and controls were maintained in a greenhouse for 13 to 15 days, after which time all species were compared to controls and visually evaluated. […] A dash (-) response means no test result.

[16] = tested on: ducksalad (Heteranhera limosa); test: as above; settings: 250 g ai/ha, Flood, applied to paddy water, 2-leaf stage, evaluated after 13 to 15 days
Procedure: as §3

rice (Oryza sativa) = test: as above; settings: 250 g ai/ha, Flood, applied to paddy water, 2-leaf stage, evaluated after 13 to 15 days
Procedure: as §3

[17] = tested on: sedge, umbrella (small-flower umbrella sedge, Cyperus difformis); test: as above; settings: 250 g ai/ha, Flood, applied to paddy water, 2-leaf stage, evaluated after 13 to 15 days
Procedure: as §3

Row | SMILES | Ryegrass, Italian plant response rating [1] | Ryegrass, Italian plant response rating (0 to 100 scale) [1] | Barnyardgrass plant response rating [2] | Barnyardgrass plant response rating (0 to 100 scale) [2] | Foxtail, Giant plant response rating [3] | Foxtail, Giant plant response rating (0 to 100 scale) [3] | Kochia plant response rating (kochia (Kochia scoparia) [4]) | Kochia plant response rating (0 to 100 scale) (kochia (Kochia scoparia) [4]) | Pigweed plant response rating [5] | Pigweed plant response rating (0 to 100 scale) [5] | Ryegrass, Italian plant response rating (0 to 100 scale) [6] | Ryegrass, Italian plant response rating [6] | Barnyardgrass plant response rating (0 to 100 scale) [7] | Barnyardgrass plant response rating [7] | Blackgrass plant response rating (0 to 100 scale) [8] | Blackgrass plant response rating [8] | Corn plant response rating (0 to 100 scale) (corn (Zea mays)) | Corn plant response rating (corn (Zea mays)) | Foxtail, Giant plant response rating (0 to 100 scale) [9] | Foxtail, Giant plant response rating [9] | also measured
1 | CON=C(c1cc(Cl)ccc1Cl)c1c(O)c(C)nn(C)c1=O [Compound 90] | 60 | 90 | 60 | 80 | 50 | 90 | 50 | 70 | 90 | 100 | 90 | 80 | 60 | 20 | 90 | 80 | 30 | 20 | 80 | 30 | Galium plant response rating (0 to 100 scale) [10]: 90; Galium plant response rating [10]: 90; Kochia plant response rating (0 to 100 scale) (kochia (Kochia scoparia) [11]): 80; Kochia plant response rating (kochia (Kochia scoparia) [11]): 60; Pigweed plant response rating (0 to 100 scale) [12]: 90; Pigweed plant response rating [12]: 60; Ragweed plant response rating (0 to 100 scale) [13]: 90; Ragweed plant response rating [13]: 70; Wheat plant response rating (0 to 100 scale) [14]: 40; Wheat plant response rating [14]: 30; Plant response rating, Barnyardgrass (0 to 100 scale, 0 is no effect, 100 is complete control) [15]: 0; Plant response rating, Ducksalad (0 to 100 scale, 0 is no effect, 100 is complete control) [16]: 0; Plant response rating, Rice (0 to 100 scale, 0 is no effect, 100 is complete control) (rice (Oryza sativa)): 0; Plant response rating, Sedge, Umbrella (0 to 100 scale, 0 is no effect, 100 is complete control) [17]: 0
2 | Cc1nn(C)c(=O)c(/C(=N\OC(C)C)c2ccc(F)c3ccccc23)c1O [Compound 89] | 90 | 100 | 70 | 100 | 90 | 100 | 60 | 90 | 100 | 100 | 100 | 100 | 60 | 40 | 100 | 90 | 30 | 20 | 80 | 70 | Galium plant response rating (0 to 100 scale) [10]: 90; Galium plant response rating [10]: 90; Kochia plant response rating (0 to 100 scale) (kochia (Kochia scoparia) [11]): 80; Kochia plant response rating (kochia (Kochia scoparia) [11]): 70; Pigweed plant response rating (0 to 100 scale) [12]: 100; Pigweed plant response rating [12]: 80; Ragweed plant response rating (0 to 100 scale) [13]: 90; Ragweed plant response rating [13]: 90; Wheat plant response rating (0 to 100 scale) [14]: 70; Wheat plant response rating [14]: 50; Plant response rating, Barnyardgrass (0 to 100 scale, 0 is no effect, 100 is complete control) [15]: 0; Plant response rating, Ducksalad (0 to 100 scale, 0 is no effect, 100 is complete control) [16]: 0; Plant response rating, Rice (0 to 100 scale, 0 is no effect, 100 is complete control) (rice (Oryza sativa)): 0; Plant response rating, Sedge, Umbrella (0 to 100 scale, 0 is no effect, 100 is complete control) [17]: 0
